Format in all cases: in vivo, human
In experiment [1] the test system is adults with Fragile X Syndrome (FXS). In words: RBANS list learning in AZD7325 clinical study. More on the design: key to RBANS list learning, difference of least squares means, Estimate: Low - High / RBANS list learning, difference of least squares means, Estimate: Baseline - High: difference in raw score (number of words remembered). As to conditions: for RBANS_LL change: chronic.

Experiment [2] shares this test system. Kind of experiment: WJ auditory attention. As to conditions: FMRP-present male patients.
The test system is the same in experiment [3]. In words: RBANS list learning in AZD7325 clinical study. Details: key to RBANS list learning, difference of least squares means, Estimate: Baseline - Low: difference in raw score (number of words remembered); key to RBANS-LL score: raw score = number of words remembered; higher is better. As to conditions: for RBANS-LL score: undetectable FMRP male subjects (n=5), mean ± SD. The source says:
This study aims at investigating the safety, tolerability, and blood pharmacodynamics of treatment with oral administration of AZD7325 in adults with Fragile X Syndrome (FXS). This study also investigates measures of efficacy and biomarkers during treatment.
The treatment conditions are provided Table 2 below:
Table 5 below summarizes clinical measure RBANS List Learning scores from the 5 “undetectable” FMRP male subjects. RBANS List Learning is a verbal working memory task and raw scores provided indicate number of words remembered, with higher scores indicating more number of words remembered. Group average and standard deviation were obtained cross subjects per treatment type (Placebo/Low dose/High dose) and per visit, which are 1) baseline: before intake, 2) acute: after the first dosage, and 3) chronic: post 2-week daily dosage. Higher scores are clinically better.

[4] abbreviates: subgroup of males (outlier removed), high dose 15 mg twice per day oral.
Setting [5] is: subgroup of males (outlier removed), low dose 5 mg twice per day oral.

The values below come from patent US20230414611A1, “REFINED USES OF GABA A RECEPTOR MODULATORS IN TREATMENT OF FRAGILE X SYNDROME” (CHILDREN'S HOSPITAL MEDICAL CENTER, priority 2020, published 2023).

For the molecule `CCCNC(=O)c1nnc2c(-c3c(F)cccc3OC)cccc2c1N` [AZD7325, 4-amino-8-(2-fluoro-6-methoxyphenyl)-N-propylcinnoline-3-carboxamide], the “effect of drug on RBANS list learning” value in experiment [1] (all eligible subjects (p=0.09)) is given as “trending effect”. The RBANS_LL change entry was “improves RBANS growth in 2 of the three female detectable subjects” in experiment [1] (low dose, female detectable FMRP subjects); “bi-directional distributed and overlap with placebo” in experiment [1] (low dose, male detectable FMRP subjects); “all positive trended” in experiment [3] (low dose, chronic, nondetectable FMRP subjects). Moreover, the “effect on RBANS list learning” value in experiment [1] (low dose, subgroup of males following removal of an outlier) was “significant beneficial effect”. In addition, the “RBANS list learning, difference of least squares means, Estimate: Baseline - High” value in experiment [1] (setting [4]) was 2.09. In addition, in experiment [1] (setting [4]), the “RBANS list learning, difference of least squares means, Estimate: Placebo - High” value was 0.84. Further, the “RBANS list learning, difference of least squares means, Estimate: Placebo - Low” value in experiment [1] (setting [5]) is on record as −4.00. In experiment [1] (subgroup of males (outlier removed), low dose vs high dose), the “RBANS list learning, difference of least squares means, Estimate: Low - High” value is given as 4.84. Moreover, in experiment [2], the WJ auditory attention result is on record as “trending increase”. Moreover, the “RBANS list learning scores, trend” value in experiment [3] (all eligible subjects, low dose) is reported as “might improve”. Moreover, the “performance on RBANS” value in experiment [3] (high dose) is given as “dose limiting effect”. In addition, the “memory as measured by the RBANS assay” value in experiment [3] (low dose, males) is on record as “improved memory”. For the same molecule, the “RBANS LL score increase, low dose compared to high dose” value in experiment [3] (subgroup) was “e Low dose had greater score increase (benefit) than high dose, separating groups”. Moreover, the “RBANS list learning, difference of least squares means, Estimate: Baseline - Low” value in experiment [3] (setting [5]) is on record as −2.75. In experiment [3] (subgroup, high dose), the “change of RBANS LL from baseline” value is on record as “c No change from baseline with high dose (direction is toward worsening, −2)”. For the same molecule, the “increase (benefit) of RBANS LL compared to placebo” value in experiment [3] (subgroup, low dose) is listed as “d Low dose demonstrated increase of nearly 4 (benefit) compared to placebo”. The “increase (benefit) of RBANS LL from baseline” value in experiment [3] (subgroup, low dose) is reported as “b Low dose in this subgroup demonstrated an increase (benefit) of +2.75 of RBANS LL from baseline”. In addition, the RBANS-LL score in experiment [3] (high dose, acute (after the first dosage)) is 10.4 ± 7.40; in experiment [3] (high dose, baseline (before intake)), 14.8 ± 8.32; in experiment [3] (high dose, chronic (post 2-week daily dosage)), 12.2 ± 6.83; in experiment [3] (low dose, acute (after the first dosage)), 13.2 ± 3.11; in experiment [3] (low dose, baseline (before intake)) it was 10.6 ± 5.22; in experiment [3] (low dose, chronic (post 2-week daily dosage)) it was 14.6 ± 6.80.
